According to ChEMBL document CHEMBL1201862, “PubChem BioAssay data set” (2004):
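Where inhibition never reached the appropriate level, the endpoint shown equals the highest concentration tested. Otherwise, values were interpolated linearly from a five-concentration, 48-hour dose response in 96-well plates. The concentration for 50% growth inhibition is given as GI50.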 Activity calls are given as the source filed them. Rule as the data show it: active = GI50 up to about 1.1 µM and inactive = higher.

Legend:
Test in all cases: NCI tumour cell line growth inhibition, 48 h
SF-539 = tested on: SF-539
SF-268 = tested on: SF-268
LOX IMVI = tested on: LOX IMVI
M14 = tested on: M14
BT-549 = tested on: BT-549
SF-295 = tested on: SF-295
UACC-257 = tested on: UACC-257
IGROV-1 = tested on: IGROV-1
MOLT-4 = tested on: MOLT-4
SNB-75 = tested on: SNB-75
CCRF-CEM = tested on: CCRF-CEM
U-251 = tested on: U-251
SK-MEL-28 = tested on: SK-MEL-28
RPMI-8226 = tested on: RPMI-8226
SK-MEL-5 = tested on: SK-MEL-5
KM12 = tested on: KM12
OVCAR-5 = tested on: OVCAR-5
ACHN = tested on: ACHN
MCF7 = tested on: MCF7
OVCAR-4 = tested on: OVCAR-4

Row | Compound | GI50 (SF-539) | GI50 (SF-268) | GI50 (LOX IMVI) | GI50 (M14) | GI50 (BT-549) | GI50 (SF-295) | GI50 (UACC-257) | GI50 (IGROV-1) | GI50 (MOLT-4) | GI50 (SNB-75) | GI50 (CCRF-CEM) | GI50 (U-251) | GI50 (SK-MEL-28) | GI50 (RPMI-8226) | GI50 (SK-MEL-5) | GI50 (KM12) | GI50 (OVCAR-5) | GI50 (ACHN) | GI50 (MCF7) | GI50 (OVCAR-4)
1 | NP1(Oc2ccc(F)cc2)=NP(N)(Oc2ccc(F)cc2)=NP(Oc2ccc(F)cc2)(Oc2ccc(F)cc2)=N1 (stereo unspecified) | 14.5 µM (inactive) | 13.8 µM (inactive) | 6.84 µM (inactive) | 6.9 µM (inactive) | 2.23 µM (inactive) | 4.4 µM (inactive) | 12.3 µM (inactive) | 2.54 µM (inactive) | 3.37 µM (inactive) | 3.67 µM (inactive) | 6.21 µM (inactive) | 4.78 µM (inactive) | 12.4 µM (inactive) | 4.59 µM (inactive) | 4.91 µM (inactive) | 4.19 µM (inactive) | 11.5 µM (inactive) | 3.32 µM (inactive) | 2.94 µM (inactive) | –
2 | Cc1ccc(C2=Nc3c(c(C)nn3-c3ccccc3)N=C(C(=O)O)C2)cc1 | > 10 µM (inactive) | > 10 µM (inactive) | > 10 µM (inactive) | > 10 µM (inactive) | > 10 µM (inactive) | > 10 µM (inactive) | > 10 µM (inactive) | > 10 µM (inactive) | > 10 µM (inactive) | > 10 µM (inactive) | > 10 µM (inactive) | > 10 µM (inactive) | > 10 µM (inactive) | – | > 10 µM (inactive) | > 10 µM (inactive) | > 10 µM (inactive) | > 10 µM (inactive) | > 10 µM (inactive) | > 10 µM (inactive)
3 | C(/C=N/N=C1NCCCN1)=N\N=C1NCCCN1 | > 100 µM (inactive) | > 100 µM (inactive) | > 100 µM (inactive) | > 100 µM (inactive) | > 100 µM (inactive) | > 10 µM (inactive) | > 100 µM (inactive) | > 100 µM (inactive) | > 100 µM (inactive) | > 100 µM (inactive) | > 100 µM (inactive) | > 100 µM (inactive) | > 100 µM (inactive) | – | > 100 µM (inactive) | > 100 µM (inactive) | > 100 µM (inactive) | > 100 µM (inactive) | > 100 µM (inactive) | > 100 µM (inactive)
4 | COC(=O)CC(CNC(=O)OCc1ccccc1)OCc1ccc(OC)cc1 (stereo unspecified) | > 100 µM (inactive) | – | > 100 µM (inactive) | > 100 µM (inactive) | 34 µM (inactive) | > 100 µM (inactive) | > 100 µM (inactive) | > 100 µM (inactive) | > 100 µM (inactive) | > 100 µM (inactive) | > 100 µM (inactive) | > 100 µM (inactive) | > 100 µM (inactive) | > 100 µM (inactive) | > 100 µM (inactive) | > 100 µM (inactive) | > 100 µM (inactive) | > 100 µM (inactive) | > 100 µM (inactive) | 88.7 µM (inactive)
5 | CC(C)C(N)(C(=O)O)c1ccccc1 (stereo unspecified) | – | > 100 µM (inactive) | > 100 µM (inactive) | > 100 µM (inactive) | > 100 µM (inactive) | > 100 µM (inactive) | > 100 µM (inactive) | > 100 µM (inactive) | – | > 100 µM (inactive) | > 100 µM (inactive) | > 100 µM (inactive) | > 100 µM (inactive) | > 100 µM (inactive) | > 100 µM (inactive) | > 100 µM (inactive) | > 100 µM (inactive) | > 100 µM (inactive) | > 100 µM (inactive) | > 100 µM (inactive)
6 | O=C(COc1ccccc1)N(C(=O)N1CCN(c2ccccc2)CC1)S(=O)(=O)c1ccccc1 | > 100 µM (inactive) | 60.8 µM (inactive) | 77.4 µM (inactive) | > 100 µM (inactive) | > 100 µM (inactive) | > 100 µM (inactive) | > 100 µM (inactive) | – | 25.4 µM (inactive) | 33.9 µM (inactive) | 22.1 µM (inactive) | 30.8 µM (inactive) | > 100 µM (inactive) | – | > 100 µM (inactive) | > 100 µM (inactive) | > 100 µM (inactive) | > 100 µM (inactive) | 45.9 µM (inactive) | > 100 µM (inactive)
7 | CCc1ncnc2cc(OCC3CO3)c(OC)cc12 (stereo unspecified) | 5.98 µM (inactive) | 2.64 µM (inactive) | 0.646 µM (active) | 5.28 µM (inactive) | 3.95 µM (inactive) | 3.15 µM (inactive) | 13.6 µM (inactive) | 1.06 µM (active) | 0.153 µM (active) | 17.3 µM (inactive) | 0.436 µM (active) | 4.31 µM (inactive) | 11.7 µM (inactive) | – | 6.34 µM (inactive) | 5.58 µM (inactive) | 13 µM (inactive) | 1.37 µM (inactive) | 0.557 µM (active) | 6.38 µM (inactive)
8 | N#CCCN(CCC#N)c1ccc(/C=C2\N=C(c3ccccc3)N(c3ccccn3)C2=O)cc1 | > 100 µM (inactive) | > 100 µM (inactive) | > 100 µM (inactive) | > 100 µM (inactive) | > 100 µM (inactive) | > 100 µM (inactive) | > 100 µM (inactive) | > 100 µM (inactive) | > 100 µM (inactive) | – | > 100 µM (inactive) | > 100 µM (inactive) | > 100 µM (inactive) | > 100 µM (inactive) | > 100 µM (inactive) | > 100 µM (inactive) | > 100 µM (inactive) | > 100 µM (inactive) | > 100 µM (inactive) | > 100 µM (inactive)
9 | N#C/C(C(=O)Nc1ccccc1)=C(/N)N1CCOCC1 | > 100 µM (inactive) | – | > 100 µM (inactive) | > 100 µM (inactive) | > 100 µM (inactive) | > 100 µM (inactive) | > 100 µM (inactive) | > 100 µM (inactive) | > 100 µM (inactive) | > 100 µM (inactive) | > 100 µM (inactive) | > 100 µM (inactive) | > 100 µM (inactive) | > 100 µM (inactive) | > 100 µM (inactive) | > 100 µM (inactive) | > 100 µM (inactive) | > 100 µM (inactive) | > 100 µM (inactive) | –
10 | CCOC(=O)c1nc2ccc(C(F)(F)F)cc2nc1Oc1ccc(C#N)cc1 | 19.5 µM (inactive) | 15.5 µM (inactive) | 39.6 µM (inactive) | 18.5 µM (inactive) | 18.8 µM (inactive) | 14.8 µM (inactive) | 25.5 µM (inactive) | 14.5 µM (inactive) | > 100 µM (inactive) | 14.5 µM (inactive) | > 100 µM (inactive) | 26.3 µM (inactive) | 43.1 µM (inactive) | > 100 µM (inactive) | 38.3 µM (inactive) | 23.6 µM (inactive) | – | 29.9 µM (inactive) | 18.2 µM (inactive) | 29.6 µM (inactive)
11 | CCOC(=O)c1c(N2CCOCC2)[nH]c(=O)c(C(c2ccc(OC)cc2)c2c(O)c(C(=O)OCC)c(N3CCOCC3)[nH]c2=O)c1O | > 100 µM (inactive) | > 100 µM (inactive) | > 100 µM (inactive) | > 100 µM (inactive) | > 100 µM (inactive) | > 100 µM (inactive) | > 100 µM (inactive) | – | > 100 µM (inactive) | > 100 µM (inactive) | > 100 µM (inactive) | > 100 µM (inactive) | > 100 µM (inactive) | > 100 µM (inactive) | > 100 µM (inactive) | > 100 µM (inactive) | > 100 µM (inactive) | > 100 µM (inactive) | > 100 µM (inactive) | > 100 µM (inactive)
12 | Nc1nccc(NCC2(CO)CCC2)n1 | > 100 µM (inactive) | > 100 µM (inactive) | > 100 µM (inactive) | – | > 100 µM (inactive) | > 100 µM (inactive) | > 100 µM (inactive) | > 100 µM (inactive) | > 100 µM (inactive) | > 100 µM (inactive) | > 100 µM (inactive) | > 100 µM (inactive) | > 100 µM (inactive) | > 100 µM (inactive) | > 100 µM (inactive) | > 100 µM (inactive) | > 100 µM (inactive) | > 100 µM (inactive) | 68.9 µM (inactive) | –
13 | Oc1[nH]c(Nc2ccc(Cl)c(C(F)(F)F)c2)nc2ncnc1-2 | 26 µM (inactive) | 36.2 µM (inactive) | 25.5 µM (inactive) | 57.4 µM (inactive) | 36.6 µM (inactive) | > 100 µM (inactive) | 59.2 µM (inactive) | 35.7 µM (inactive) | 23.2 µM (inactive) | 33.9 µM (inactive) | 21 µM (inactive) | 50.5 µM (inactive) | – | > 100 µM (inactive) | 40.4 µM (inactive) | 44.8 µM (inactive) | 65.9 µM (inactive) | 44.5 µM (inactive) | 27.2 µM (inactive) | 72.1 µM (inactive)
14 | O=C1/C(=C/c2ccccc2)CCCc2ccccc21 | 17.9 µM (inactive) | 17.7 µM (inactive) | 18.4 µM (inactive) | 20.1 µM (inactive) | 20 µM (inactive) | 19 µM (inactive) | 15.7 µM (inactive) | 19.6 µM (inactive) | 18.5 µM (inactive) | 35.3 µM (inactive) | 15.7 µM (inactive) | 15.7 µM (inactive) | 17.4 µM (inactive) | 16.6 µM (inactive) | – | 18.1 µM (inactive) | 19.1 µM (inactive) | 20.8 µM (inactive) | 17.4 µM (inactive) | 17.3 µM (inactive)
15 | O=C(/C=C/c1ccc(/C=C/C(=O)c2ccc(O)cc2)cc1)c1ccc(O)cc1 | > 100 µM (inactive) | > 100 µM (inactive) | 33.8 µM (inactive) | > 100 µM (inactive) | > 100 µM (inactive) | > 100 µM (inactive) | > 100 µM (inactive) | > 10 µM (inactive) | > 100 µM (inactive) | > 100 µM (inactive) | > 100 µM (inactive) | 16.4 µM (inactive) | > 100 µM (inactive) | > 100 µM (inactive) | > 100 µM (inactive) | > 100 µM (inactive) | > 100 µM (inactive) | > 100 µM (inactive) | > 100 µM (inactive) | –
